# Measurements taken from patent publication US4663309A, “Novel peptide hormones with calcitonin-like activity” (University Patents, Inc., priority 1985, dated 1987).
# Bridge positions count the residues as written; N and C are the ends. Peptide text beside a SMILES is read from it.
# Test system: rat kidney adenylate cyclase
# Assay: Peptide stimulation of adenylate cyclase activity in crude kidney cortical membranes
# Type: biochemical
# Conditions: 10 min at 37° C.
# Description: Crude rats brain membranes were prepared as described by Nakamuta et al., supra, using 250-300 gm male Sprague-Dawley rats (Charles River Breeding Laboratories). Membranes were either used immediately or stored at -80° C. for no more than three days. Crude rat kidney membranes used for binding studies and adenylate cyclase assays were prepared as described by Schwartz, K. E., R. C. Orlowski and R. Marcus, Endocrinology 108:831 (1981) with a minor modification. The dissected kidney cortices were first homogenized briefly with a Polytron™ (Brinkman Instruments) at low speed ("5") before complete homogenization with a loose-fitting Wheaton Dounce homogenizer (American Scientific Products, MacGaw Park, IL, pestle "B"). Protein concentrations were determined using Coomassie Brilliant Blue G-250 (Sedmak, J. J. and S. E. Grossberg, Anal. Biochem. 83:544 (1977)) and crystallized BSA (Sigma Chemical Co., St. Louis, MO) as the standard. All preparations of kidney membranes were carried out at 4° C. and the membranes were used immediately for binding studies or adenylate cyclase assays.
# Peptide stimulation of adenylate cyclase activity in crude kidney cortical membranes was measured using methods described by Marcus, R. and G. D. Aurbach, Biochim. Biophys. Acta 242:410 (1971). […]
smiles,measurement,value
CC(C)C[C@H](NC(=O)[C@H](CCCCN)NC(=O)[C@H](CCC(N)=O)NC(=O)[C@H](CC(C)C)NC(=O)[C@H](CCC(N)=O)NC(=O)[C@H](CCC(N)=O)NC(=O)[C@H](CC(C)C)NC(=O)[C@H](CC(C)C)NC(=O)[C@@H]1CSSC[C@H](N)C(=O)N[C@@H](CO)C(=O)N[C@@H](CC(N)=O)C(=O)N[C@@H](CC(C)C)C(=O)N[C@@H](CO)C(=O)N[C@@H]([C@@H](C)O)C(=O)N1)C(=O)N[C@@H](CC(C)C)C(=O)N[C@@H](CCC(N)=O)C(=O)N[C@@H](CCCCN)C(=O)N[C@@H](CC(C)C)C(=O)N[C@@H](CCCCN)C(=O)N[C@@H](CCC(N)=O)C(=O)N[C@@H](Cc1ccc(O)cc1)C(=O)N1CCC[C@H]1C(=O)N[C@@H](CCCNC(=N)N)C(=O)N[C@H](C(=O)N[C@@H](CC(N)=O)C(=O)N[C@H](C(=O)NCC(=O)N[C@@H](CO)C(=O)NCC(=O)N[C@H](C(=O)N1CCC[C@H]1C(N)=O)[C@@H](C)O)[C@@H](C)O)[C@@H](C)O [MCT-II] (H-CSNLSTCLLQQLQKLLQKLKQYPRTNTGSGTP-NH2; disulfide 1-7; N-terminus assumed),Stimulation of adenylate cyclase over basal activity,stimulated adenylate cyclase over basal activity
